Columns and labels:
rice = assay: Test B flooded paddy test; assay type: in vivo, Oryza sativa; details: Flood, scale of 0 to 100 where 0 is no effect and 100 is complete control
Outline: (§1)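 Visual ratings from 0, meaning no effect, up to 100, meaning complete control, were made by comparison with untreated controls 13 to 15 days after treatment. Test compounds went straight into floodwater standing 3 cm over the soil of pots holding 2-leaf seedlings.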

ducksalad = assay: Test B flooded paddy test; assay type: in vivo, Heteranthera limosa; details: Flood, scale of 0 to 100 where 0 is no effect and 100 is complete control
Outline: as §1

soybean = assay: Test C pre-/postemergence herbicide test; assay type: in vivo, Glycine max
Outline: (§2)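 Plants grown and held in a greenhouse for 13 to 15 days post-spray, then rated 0–100 by visual comparison with controls. Pre treatments targeted seeds in loam and sand; post treatments targeted 1- to 4-leaf plants in peat-based potting medium.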

barnyardgrass [1] = assay: Test B flooded paddy test; assay type: in vivo, Echinochloa crus-galli; details: Flood, scale of 0 to 100 where 0 is no effect and 100 is complete control
Outline: as §1

sedge, umbrella = assay: Test B flooded paddy test; assay type: in vivo, Cyperus difformis; details: Flood, scale of 0 to 100 where 0 is no effect and 100 is complete control
Outline: as §1

ragweed = assay: Test C pre-/postemergence herbicide test; assay type: in vivo, Ambrosia elatior
Outline: as §2

barnyardgrass [2] = assay: Test A pre-/postemergence herbicide test; assay type: in vivo, Echinochloa crus-galli
Outline: (§3)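 Approximately 10 days after treatment in the greenhouse, plants were compared with untreated controls and given a 0–100 visual injury rating. Applications: preemergence directed soil spray; postemergence on 2–10 cm plants at the one- to two-leaf stage.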

barnyardgrass [3] = assay: Test C pre-/postemergence herbicide test; assay type: in vivo, Echinochloa crus-galli
Outline: as §2

morningglory = assay: Test C pre-/postemergence herbicide test; assay type: in vivo, Ipomoea coccinea
Outline: as §2

blackgrass = assay: Test C pre-/postemergence herbicide test; assay type: in vivo, Alopecurus myosuroides
Outline: as §2

crabgrass, large = assay: Test C pre-/postemergence herbicide test; assay type: in vivo, Digitaria sanguinalis
Outline: as §2

giant foxtail = assay: Test A pre-/postemergence herbicide test; assay type: in vivo, Setaria faberii
Outline: as §3

corn = assay: Test A pre-/postemergence herbicide test; assay type: in vivo, Zea mays
Outline: as §3

[4] = Preemergence, 31 g ai/ha, scale 0 to 100, 0 is no effect and 100 is complete control
[5] = Preemergence, 62 g ai/ha, scale 0 to 100 (0 no effect, 100 complete control)
[6] = Preemergence, 125 g ai/ha, scale 0 to 100 (0 no effect, 100 complete control)
[7] = Postemergence, 125 g ai/ha, 0 to 100 scale, 0 is no effect, 100 is complete control
[8] = Postemergence, 500 g ai/ha, 0 to 100 scale (0 no effect, 100 complete control)
[9] = Preemergence, 125 g ai/ha, 0 to 100 scale where 0 is no effect and 100 is complete control
[10] = preemergence, 500 g ai/ha, 0 to 100 scale, 0 is no effect and 100 is complete control
[11] = Postemergence, 31 g ai/ha, scale 0 to 100 (0 no effect, 100 complete control)
[12] = Postemergence, 62 g ai/ha, scale 0 (no effect) to 100 (complete control)
[13] = Postemergence, 125 g ai/ha, scale 0 to 100 (0 no effect, 100 complete control)
[14] = Postemergence, 250 g ai/ha, scale 0 to 100 (0 no effect, 100 complete control)
[15] = 125 g ai/ha, visual rating, 0 to 100 scale, 0 no effect, 100 complete control, approximately 10 days, preemergence
[16] = Preemergence, 62 g ai/ha, scale 0 to 100

O=C1NCC(c2ccc(C(F)(F)F)nc2)C1C(=O)Nc1cccc(F)c1F (racemic) [Compound 263]
Plant response rating, Rice (rice; 1000 g ai/ha): 0
Plant response rating, Ducksalad (ducksalad; 1000 g ai/ha): 90
Soybean plant response rating (soybean; [4]): 0
Soybean plant response rating (soybean; [5]): 0
Plant response rating, Soybean (soybean; [6]): 100
Plant response rating (scale of 0 to 100), Soybean (soybean; Preemergence, 250 g ai/ha): 0
Plant response rating, Barnyardgrass (barnyardgrass [1]; 1000 g ai/ha): 0
Plant response rating, Sedge, Umbrella (sedge, umbrella; 1000 g ai/ha): 0
Ragweed plant response rating (ragweed; [4]): 0
Ragweed plant response rating (ragweed; [5]): 90
Plant response rating, Ragweed (ragweed; [6]): 80
Plant response rating (scale of 0 to 100), Ragweed (ragweed; Preemergence, 250 g ai/ha): 100
Plant response rating, Barnyardgrass (barnyardgrass [2]; [7]): 70
Plant response rating, Barnyardgrass (barnyardgrass [2]; [8]): 80
Plant response rating, Barnyardgrass (barnyardgrass [2]; [9]): 80
Plant response rating, Barnyardgrass (barnyardgrass [2]; [10]): 90
Barnyardgrass plant response rating (barnyardgrass [3]; [4]): 75
Barnyardgrass plant response rating (barnyardgrass [3]; [5]): 90
Plant response rating, Barnyardgrass (barnyardgrass [3]; [6]): 95
Plant response rating (scale of 0 to 100; 0 is no effect, 100 is complete control), Barnyardgrass (barnyardgrass [3]; Preemergence, 250 g ai/ha): 98
Morningglory plant response rating (morningglory; [4]): 0
Morningglory plant response rating (morningglory; [5]): 0
Plant response rating, Morningglory (morningglory; [6]): 20
Plant response rating (scale of 0 to 100), Morningglory (morningglory; Preemergence, 250 g ai/ha): 10
Blackgrass plant response rating (blackgrass; [4]): 0
Blackgrass plant response rating (blackgrass; [5]): 0
Plant response rating, Blackgrass (blackgrass; [6]): 40
Plant response rating (scale of 0 to 100), Blackgrass (blackgrass; Preemergence, 250 g ai/ha): 70
Crabgrass, Large plant response rating (crabgrass, large; [4]): 100
Crabgrass, Large plant response rating (crabgrass, large; [5]): 100
Plant response rating, Crabgrass, Large (crabgrass, large; [6]): 100
Plant response rating (scale of 0 to 100), Crabgrass, Large (crabgrass, large; Preemergence, 250 g ai/ha): 100
Plant response rating, Foxtail, Giant (giant foxtail; [7]): 80
Plant response rating, Foxtail, Giant (giant foxtail; [8]): 90
Plant response rating, Foxtail, Giant (giant foxtail; [9]): 90
Plant response rating, Foxtail, Giant (giant foxtail; [10]): 100
Plant response rating, Corn (corn; [7]): 40
Plant response rating, Corn (corn; [8]): 60
Plant response rating, Corn (corn; [9]): 0
Plant response rating, Corn (corn; [10]): 70

O=C1NCC(c2ccc(C(F)(F)F)cc2)C1C(=O)Nc1ccc(F)c(F)c1F (stereo not drawn) [Compound 232]
Plant response rating, Rice (rice; 500 g ai/ha): 20
Plant response rating, Ducksalad (ducksalad; 500 g ai/ha): 100
Plant response rating, Soybean (soybean; [11]): 0
Plant response rating, Soybean (soybean; [12]): 10
Plant response rating, Soybean (soybean; [13]): 10
Plant response rating, Soybean (soybean; [14]): 20
Soybean plant response rating (soybean; [4]): 0
Soybean plant response rating (soybean; [5]): 0
Plant response rating, Soybean (soybean; [6]): 0
Plant response rating (scale of 0 to 100), Soybean (soybean; Preemergence, 250 g ai/ha): 5
Plant response rating, Barnyardgrass (barnyardgrass [1]; 500 g ai/ha): 85
Plant response rating, Sedge, Umbrella (sedge, umbrella; 500 g ai/ha): 0
Plant response rating, Ragweed (ragweed; [11]): 75
Plant response rating, Ragweed (ragweed; [12]): 80
Plant response rating, Ragweed (ragweed; [13]): 85
Plant response rating, Ragweed (ragweed; [14]): 75
Ragweed plant response rating (ragweed; [4]): 65
Ragweed plant response rating (ragweed; [5]): 85
Plant response rating, Ragweed (ragweed; [6]): 85
Plant response rating (scale of 0 to 100), Ragweed (ragweed; Preemergence, 250 g ai/ha): 90
Plant response rating, Barnyardgrass (barnyardgrass [2]; [15]): 90
Plant response rating, Barnyardgrass (barnyardgrass [2]; [7]): 80
Barnyardgrass plant response rating (0 to 100 scale, 0 is no effect, 100 is complete control) (barnyardgrass [2]; Postemergence, 500 g ai/ha): 90
Plant response rating, Barnyardgrass (barnyardgrass [2]; [10]): 90
Plant response rating, Barnyardgrass (barnyardgrass [3]; [11]): 5
Plant response rating, Barnyardgrass (barnyardgrass [3]; [12]): 55
Plant response rating, Barnyardgrass (barnyardgrass [3]; [13]): 70
Plant response rating, Barnyardgrass (barnyardgrass [3]; [14]): 75
Barnyardgrass plant response rating (barnyardgrass [3]; [4]): 85
Plant response rating, Barnyardgrass (barnyardgrass [3]; [16]): 85
Plant response rating, Barnyardgrass (barnyardgrass [3]; [6]): 95
Plant response rating (scale of 0 to 100; 0 is no effect, 100 is complete control), Barnyardgrass (barnyardgrass [3]; Preemergence, 250 g ai/ha): 95
Plant response rating, Morningglory (morningglory; [11]): 15
Plant response rating, Morningglory (morningglory; [12]): 0
Plant response rating, Morningglory (morningglory; [13]): 25
Plant response rating, Morningglory (morningglory; [14]): 60
Morningglory plant response rating (morningglory; [4]): 0
Morningglory plant response rating (morningglory; [5]): 15
Plant response rating, Morningglory (morningglory; [6]): 15
Plant response rating (scale of 0 to 100), Morningglory (morningglory; Preemergence, 250 g ai/ha): 20
Plant response rating, Blackgrass (blackgrass; [11]): 0
Plant response rating, Blackgrass (blackgrass; [12]): 0
Plant response rating, Blackgrass (blackgrass; [13]): 0
Plant response rating, Blackgrass (blackgrass; [14]): 0
Blackgrass plant response rating (blackgrass; [4]): 60
Plant response rating, Blackgrass (blackgrass; [16]): 70
Plant response rating, Blackgrass (blackgrass; [6]): 70
Plant response rating (scale of 0 to 100), Blackgrass (blackgrass; Preemergence, 250 g ai/ha): 85
Plant response rating, Crabgrass, Large (crabgrass, large; [11]): 25
Plant response rating, Crabgrass, Large (crabgrass, large; [12]): 35
Plant response rating, Crabgrass, Large (crabgrass, large; [13]): 60
Plant response rating, Crabgrass, Large (crabgrass, large; [14]): 75
Crabgrass, Large plant response rating (crabgrass, large; [4]): 85
Crabgrass, Large plant response rating (crabgrass, large; [5]): 90
Plant response rating, Crabgrass, Large (crabgrass, large; [6]): 90
Plant response rating (scale of 0 to 100), Crabgrass, Large (crabgrass, large; Preemergence, 250 g ai/ha): 90
Plant response rating, Foxtail, Giant (giant foxtail; [15]): 90
Plant response rating, Foxtail, Giant (giant foxtail; [7]): 90
Foxtail, Giant plant response rating (0 to 100 scale, 0 is no effect, 100 is complete control) (giant foxtail; Postemergence, 500 g ai/ha): 90
Plant response rating, Foxtail, Giant (giant foxtail; [10]): 90
Plant response rating, Corn (corn; [7]): 80
Corn plant response rating (0 to 100 scale, 0 is no effect, 100 is complete control) (corn; Postemergence, 500 g ai/ha): 80

Source: patent US10294202B2, “Pyrrolidinones as herbicides” (FMC Corporation, priority 2013, dated 2019)
